# Results taken from ChEMBL document CHEMBL3045773, “Synthesis and structureactivity relationship of acylthiourea derivatives as inhibitors of microsomal epoxide hydrolase” (Med Chem Res, 2012).
# Target: T1, Epoxide hydrolase 1 (Homo sapiens, UniProt P07099)
# T1 sequence (P07099 whole entry): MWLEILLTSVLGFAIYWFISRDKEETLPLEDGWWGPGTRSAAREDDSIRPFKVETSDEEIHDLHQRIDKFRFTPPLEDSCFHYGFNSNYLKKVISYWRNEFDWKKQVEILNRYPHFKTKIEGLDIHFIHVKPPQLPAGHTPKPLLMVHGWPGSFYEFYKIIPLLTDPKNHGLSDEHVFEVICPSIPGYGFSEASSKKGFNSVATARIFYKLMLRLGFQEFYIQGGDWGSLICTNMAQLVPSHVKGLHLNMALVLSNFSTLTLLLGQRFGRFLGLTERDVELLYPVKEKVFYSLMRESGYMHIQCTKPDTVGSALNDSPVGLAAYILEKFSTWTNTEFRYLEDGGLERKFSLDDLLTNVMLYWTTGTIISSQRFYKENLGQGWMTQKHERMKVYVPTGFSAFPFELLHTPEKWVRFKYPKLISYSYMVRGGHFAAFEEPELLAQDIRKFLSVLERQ
# Test: Inhibition of microsomal epoxide hydrolase (unknown origin) using 7-(2-(Oxiran-2-yl)ethoxy) Resorufin by fluorometric method
row,IC50 [µM],Compound
1,1.72,O=C(NC(=S)Nc1ccc(N2CCOCC2)cc1)c1ccccc1
2,1.64,O=C(NC(=S)Nc1ccc(Cl)cc1)c1ccccc1
3,1.65,COc1cc([N+](=O)[O-])ccc1NC(=S)NC(=O)c1ccccc1
4,2.54,COc1cc(C)ccc1NC(=S)NC(=O)c1ccccc1
5,2.1,O=C(NC(=S)Nc1ccc(Oc2ccccc2)cc1)c1ccccc1
6,1.58,CC(C)(C)NC(=S)NC(=O)c1ccccc1
7,2.28,O=C(NC(=S)Nc1ccncc1)c1ccccc1
8,1.88,O=C(NC(=S)Nc1ccc(Br)c2ccccc12)c1ccccc1
9,1.01,O=C(NC(=S)NC12CC3CC(CC(C3)C1)C2)c1ccccc1
10,1.5,CC(=O)NC(=S)Nc1ccccc1C
11,2.21,CC(=O)NC(=S)Nc1ccc(Cl)cc1
12,1.64,CC(=O)NC(=S)Nc1ccc(Br)cc1
13,2.29,CC(=O)NC(=S)Nc1cc(Cl)ccc1Cl
14,2.53,CCOc1ccc(OCC)c(NC(=S)NC(C)=O)c1
15,1.39,CC(=O)NC(=S)Nc1ccc(Br)c(C(F)(F)F)c1
16,1.87,COc1cc([N+](=O)[O-])ccc1NC(=S)NC(C)=O

row,IC50 [µM],Compound
1,1.69,COc1cc(C)ccc1NC(=S)NC(C)=O
2,3.7,CC(=O)NC(=S)Nc1ccc(Oc2ccccc2)cc1
3,2.59,CC(=O)NC(=S)Nc1ccc(N2CCOCC2)cc1
4,2.7,CC(=O)NC(=S)NC(C)(C)C
5,2.07,CC(=O)NC(=S)Nc1ccncc1
6,2.42,CC(=O)NC(=S)Nc1ccc(Br)c2ccccc12
7,1.12,CC(=O)NC(=S)NC12CC3CC(CC(C3)C1)C2
8,3.54,Cc1ccccc1NC(=S)NC(=O)c1ccccc1
9,3.44,O=C(NC(=S)Nc1ccc(Br)cc1)c1ccccc1
10,2.15,O=C(NC(=S)Nc1cc(Cl)ccc1Cl)c1ccccc1
11,2.04,CCOc1ccc(OCC)c(NC(=S)NC(=O)c2ccccc2)c1
12,1.17,O=C(NC(=S)Nc1ccc(Br)c(C(F)(F)F)c1)c1ccccc1
13,1.2,O=C(Nc1ccccc1)Nc1ccccc1
14,2.35,CC(=O)NC(=S)Nc1ccccc1 [N-(PHENYLCARBAMOTHIOYL)ACETAMIDE]
15,1.29,O=C(NC(=S)Nc1ccccc1)c1ccccc1 [N-(PHENYLCARBAMOTHIOYL)BENZAMIDE]
